Measurements reported in the NIST ThermoML archive (doi:10.1016/j.jct.2019.03.040).
± gives the expanded uncertainty stated by the source.

How the values were obtained:
[1] = Liquid; for thermal diffusivity: 101.33 kPa, Laser flash apparatus
[2] = molar heat capacity at constant pressure; details: 101.33 kPa, Liquid, Small sample (50 mg) DSC

CCCOC(=O)CCC(C)=O [propyl levulinate]
Details	Critical pressure [kPa]	Critical temperature [K]	molar heat capacity at constant pressure [J/K/mol]	thermal diffusivity [m2/s]
[1], 303.15 K	–	–	–	7.82e-08 ± 4.2e-09
[1], 313.15 K	–	–	–	7.73e-08 ± 4.2e-09
[1], 323.15 K	–	–	–	7.62e-08 ± 4.1e-09
[1], 333.15 K	–	–	–	7.53e-08 ± 4e-09
[1], 343.15 K	–	–	–	7.37e-08 ± 4e-09
[1], 353.15 K	–	–	–	7.26e-08 ± 3.9e-09
[1], 363.15 K	–	–	–	7.22e-08 ± 3.9e-09
[1], Resistive pulse heating	2670 ± 80	674 ± 7	–	–
[2], 303.04 K	–	–	319.87 ± 7.9	–
[2], 303.54 K	–	–	320.34 ± 7.9	–
[2], 304.04 K	–	–	320.5 ± 7.9	–
[2], 304.54 K	–	–	320.03 ± 7.9	–
[2], 305.04 K	–	–	320.5 ± 7.9	–
[2], 305.54 K	–	–	320.34 ± 7.9	–
[2], 306.04 K	–	–	320.5 ± 7.9	–
[2], 306.54 K	–	–	320.19 ± 7.9	–
[2], 307.04 K	–	–	320.19 ± 7.9	–
[2], 307.54 K	–	–	320.82 ± 7.9	–
[2], 308.04 K	–	–	320.82 ± 7.9	–
[2], 308.54 K	–	–	321.45 ± 7.9	–
[2], 309.04 K	–	–	320.82 ± 7.9	–
[2], 309.54 K	–	–	321.14 ± 7.9	–
[2], 310.04 K	–	–	321.61 ± 7.9	–
[2], 310.54 K	–	–	321.14 ± 7.9	–
[2], 311.04 K	–	–	321.29 ± 7.9	–
[2], 311.54 K	–	–	321.29 ± 7.9	–
[2], 312.04 K	–	–	322.08 ± 7.9	–
[2], 312.54 K	–	–	321.45 ± 7.9	–
[2], 313.04 K	–	–	322.24 ± 7.9	–
[2], 313.54 K	–	–	322.08 ± 7.9	–
[2], 314.04 K	–	–	322.24 ± 7.9	–
[2], 314.54 K	–	–	322.24 ± 7.9	–
[2], 315.04 K	–	–	322.56 ± 7.9	–
[2], 315.54 K	–	–	322.88 ± 7.9	–
[2], 316.04 K	–	–	322.72 ± 7.9	–
[2], 316.54 K	–	–	322.24 ± 7.9	–
[2], 317.04 K	–	–	322.56 ± 7.9	–
[2], 317.54 K	–	–	323.03 ± 7.9	–
[2], 318.04 K	–	–	323.98 ± 7.9	–
[2], 318.54 K	–	–	323.19 ± 7.9	–
[2], 319.04 K	–	–	323.67 ± 7.9	–
[2], 319.54 K	–	–	324.14 ± 7.9	–
[2], 320.04 K	–	–	323.35 ± 7.9	–
[2], 320.54 K	–	–	323.83 ± 7.9	–
[2], 321.04 K	–	–	323.67 ± 7.9	–
[2], 321.54 K	–	–	323.83 ± 7.9	–
[2], 322.04 K	–	–	323.83 ± 7.9	–
[2], 322.54 K	–	–	324.62 ± 7.9	–
[2], 323.04 K	–	–	324.46 ± 7.9	–
[2], 323.54 K	–	–	324.46 ± 7.9	–
[2], 324.04 K	–	–	324.3 ± 7.9	–
[2], 324.54 K	–	–	324.93 ± 7.9	–
[2], 325.04 K	–	–	324.93 ± 7.9	–
[2], 325.54 K	–	–	325.25 ± 7.9	–
[2], 326.04 K	–	–	325.57 ± 7.9	–
[2], 326.54 K	–	–	325.72 ± 7.9	–
[2], 327.04 K	–	–	325.88 ± 7.9	–
[2], 327.54 K	–	–	325.72 ± 7.9	–
[2], 328.04 K	–	–	326.04 ± 8.1	–
[2], 328.54 K	–	–	326.67 ± 8.1	–
[2], 329.04 K	–	–	325.72 ± 7.9	–
[2], 329.54 K	–	–	326.51 ± 8.1	–
[2], 330.04 K	–	–	326.2 ± 8.1	–
[2], 330.54 K	–	–	326.83 ± 8.1	–
[2], 331.04 K	–	–	326.83 ± 8.1	–
[2], 331.54 K	–	–	327.15 ± 8.1	–
[2], 332.04 K	–	–	326.83 ± 8.1	–
[2], 332.54 K	–	–	327.15 ± 8.1	–
[2], 333.04 K	–	–	326.83 ± 8.1	–
[2], 333.54 K	–	–	327.31 ± 8.1	–
[2], 334.04 K	–	–	327.62 ± 8.1	–
[2], 334.54 K	–	–	328.1 ± 8.1	–
[2], 335.04 K	–	–	328.41 ± 8.1	–
[2], 335.54 K	–	–	328.73 ± 8.1	–
[2], 336.04 K	–	–	328.41 ± 8.1	–
